The text below walks through data of ChEMBL document CHEMBL1151618, “Neoisostegane, a new bisbenzocyclooctadiene lignan lactone from Steganotaenia araliacea” (1984).

≈ marks a conversion by molar mass, not a printed value.

In the assay the test system is KB. Nature of the assay: Cytotoxicity against human KB cells. Format: functional. The note with it: read-out: ED50 (the source's name).

For `COc1cc2c(cc1OC)-c1cc(OC)c(OC)c(OC)c1C[C@H]1C(=O)OC[C@@H]1C2` [NEOISOSTEGANE], the EC50 was determined as 6.6 µg/mL (≈ 15.9 µM).
